From patent US20050169981A1, “Solid compositions comprising ramipril” (priority 2001, published 2005)

Assay: Stability of capsules stored at 50° C. for one week, degradation products by HPLC
Type: physicochemical
Settings: starting ramipril, before encapsulation and storage
Method: For each of the 4 examples, the ingredients in the proportions shown were mixed together. The powder mixture was then passed through a #60 screen and mixed again. The powder mixture was then filled into size 4 two-piece hard gelatin capsules as a net fill of 150 mg per capsules, so that each capsule contained 1.25 mg of ramipril. Capsules of each of the examples were stored at 50° C. for one week and then tested by a high-performance liquid chromatographic method (HPLC) to determine the degradation products as a percentage of the ramipril content.

level of degradation products in the ramipril used to make the capsules: 0.29%
SMILES: CCOC(=O)[C@H](CCc1ccccc1)N[C@@H](C)C(=O)N1[C@H](C(=O)O)C[C@@H]2CCC[C@@H]21 [ramipril, Ramipril]
